# Test results taken from patent US6461807B1, “Methods for drug target screening” (priority 1997, dated 2002).
# Tests used:
# [1] = system: S. cerevisiae wild-type and cna, cph1, fpr1 deletion strains; experiment: Transcript array comparison of drug-exposed wild-type and deletion mutant yeast, microarray with approximately 5900 ORFs; assay type: cell-based, Saccharomyces cerevisiae
# Protocol: (§1) The RNA was converted into cDNA while simultaneously incorporating fluorescent nucleotides, according to standard protocols as described above. The cDNAs were hybridized to either a microarray having 140 sites with relevant S. cerevisiae ORF sequences, or to a microarray having sites with 5900 sites with nearly all known S. cerevisiae ORF sequences. The intensities of the two fluors used to label the RNAs to be compared were measured at each site of the array. The ratio of these intensities is referred to as the expression ratio.
# (§2) To produce deletion mutant transcript arrays, RNA was prepared from a publicly available S. cerevisiae strain that contains genetic disruptions in both catalytic subunits of calcineurin (hereinafter, the cna mutant) and its isogeneic with the parental wild-type strain. These two strains were grown in parallel, harvested and processed in an identical manner as described above. As above, the cDNAs were hybridized to the array and the intensities of the two fluors (expression ratio) were measured at each site of the array. Thereby a cna mutant transcript array was produced.
# (§3) Selected pairs of the transcript arrays were compared by computing a correlation coefficient between the pairs as previously described. As is known in the art, higher values of the correlation coefficient represent a greater degree of similarity between the pair of arrays. As indicated subsequently, in some cases expression ratios were directly used for this computation, while in other cases the log10 function of the expression ratios were used.
# In this table, columns two and three list the transcript arrays that are compared (labeled “First Transcript Array” and “Second Transcript Array”). Their correlation coefficient is presented in the fourth column (labeled “Corr. Coef.”). The number of standard deviations represented by the correlation coefficient (in terms of the expected correlation coefficient representing one Gaussian standard deviation) is presented in the fifth column (labeled “Std. Dev.”). The expected standard deviation depends on the data set size according to known statistical procedures. The number of standard deviations above the expected mean can be used to determine the statistical significance of the correlation coefficient, as is known in the art.
# The transcript arrays measured in Tables 1 and 2 were similarly produced by the previously described methods.
# [2] = system: S. cerevisiae wild-type and cna, cph1, fpr1 deletion strains; experiment: Transcript array comparison of drug-exposed wild-type and deletion mutant yeast, microarray with 140 selected ORF sites; assay type: cell-based, Saccharomyces cerevisiae; settings: Table 3, 140 ORF sites
# Protocol: as §1, §2
# Deletion mutant transcript arrays were also produced in similar manners for disruptions to the genes cph1 (coding the major cyclophilin in yeast) and fpr1 (coding the major FK506-binding protein).
# as §3
# This table, in contrast to Table 1 and 2 (which were created from microarrays with approximately 5900 ORF sites) was created from microarray having sites with 140 S. cerevisiae selected ORF sites thought to be relevant to the primary action of these drugs. Correlation coefficients were computed using log10 of the raw expression ratios.
# [3] = Table 1, log10 of expression ratios, 1 mg/ml FK506 or 30 mg/ml CSA
structure (smiles),measurement,setting,value
C=CC[C@@H]1/C=C(\C)C[C@H](C)C[C@H](OC)[C@H]2O[C@@](O)(C(=O)C(=O)N3CCCC[C@H]3C(=O)O[C@H](/C(C)=C/[C@@H]3CC[C@@H](O)[C@H](OC)C3)[C@H](C)[C@@H](O)CC1=O)[C@H](C)C[C@@H]2OC [FK506],"Corr. Coef., wild-type drug transcript array vs fpr1 mutant transcript array","[1]; Table 1, log10 of expression ratios, 1 mg/ml FK506",−0.011
same,"Corr. Coef., wild-type FK506 drug transcript array vs wild-type CSA drug transcript array","[1]; Table 1, log10 of expression ratios, 1 mg/ml FK506, 30 mg/ml CSA, three generations",0.334
same,"Corr. Coef., wild-type drug transcript array vs cna mutant drug transcript array (same drug)",[1]; [3],0.065
same,"Corr. Coef., wild-type drug transcript array vs cna mutant transcript array",[1]; [3],0.605
same,"Corr. Coef., wild-type drug transcript array vs cph1 mutant drug transcript array (same drug)",[1]; [3],0.767
same,"Corr. Coef., wild-type drug transcript array vs fpr1 mutant drug transcript array (same drug)",[1]; [3],−0.085
same,"Corr. Coef., wild-type FK506 drug transcript array vs cna mutant FK506 drug transcript array",[1]; Table 2,0.052
same,"Corr. Coef., wild-type FK506 drug transcript array vs cna mutant transcript array",[1]; Table 2,0.245
same,"Corr. Coef., wild-type FK506 drug transcript array vs cph1 mutant FK506 drug transcript array",[1]; Table 2,0.328
same,"Corr. Coef., wild-type FK506 drug transcript array vs fpr1 mutant FK506 drug transcript array",[1]; Table 2,0.136
same,"Corr. Coef., wild-type FK506 drug transcript array vs wild-type CSA drug transcript array",[1]; Table 2,0.243
same,"Corr. Coef., cna mutant FK506 drug transcript array vs cna mutant CSA drug transcript array",[2],0.20
same,"Corr. Coef., cph1 mutant FK506 drug transcript array vs cph1 mutant CSA drug transcript array",[2],0.15
same,"Corr. Coef., cph1 mutant FK506 drug transcript array vs fpr1 mutant CSA drug transcript array",[2],0.71
same,"Corr. Coef., fpr1 mutant FK506 drug transcript array vs cph1 mutant CSA drug transcript array",[2],0.40
same,"Corr. Coef., fpr1 mutant FK506 drug transcript array vs fpr1 mutant CSA drug transcript array",[2],−0.01
same,"Corr. Coef., wild-type FK506 drug transcript array vs wild-type CSA drug transcript array",[2]; log10 of raw expression ratios,0.67
same,"Corr. Coef., wild-type drug transcript array vs cna mutant drug transcript array (same drug)",[2]; log10 of raw expression ratios,−0.12
same,"Corr. Coef., wild-type drug transcript array vs cna mutant transcript array",[2]; log10 of raw expression ratios,0.61
same,"Corr. Coef., wild-type drug transcript array vs cph1 mutant drug transcript array (same drug)",[2]; log10 of raw expression ratios,0.70
same,"Corr. Coef., wild-type drug transcript array vs fpr1 mutant drug transcript array (same drug)",[2]; log10 of raw expression ratios,0.04
same,"Corr. Coef., wild-type vs wild-type transcript array vs wild-type drug transcript array",[2]; negative control comparison,−0.05
